≈ marks a conversion by molar mass, not a printed value.
How the values were obtained:
[1] = target: T1, Nuclear receptor subfamily 1 group I member 2 (Homo sapiens, UniProt O75469)
T1 sequence (O75469 whole entry): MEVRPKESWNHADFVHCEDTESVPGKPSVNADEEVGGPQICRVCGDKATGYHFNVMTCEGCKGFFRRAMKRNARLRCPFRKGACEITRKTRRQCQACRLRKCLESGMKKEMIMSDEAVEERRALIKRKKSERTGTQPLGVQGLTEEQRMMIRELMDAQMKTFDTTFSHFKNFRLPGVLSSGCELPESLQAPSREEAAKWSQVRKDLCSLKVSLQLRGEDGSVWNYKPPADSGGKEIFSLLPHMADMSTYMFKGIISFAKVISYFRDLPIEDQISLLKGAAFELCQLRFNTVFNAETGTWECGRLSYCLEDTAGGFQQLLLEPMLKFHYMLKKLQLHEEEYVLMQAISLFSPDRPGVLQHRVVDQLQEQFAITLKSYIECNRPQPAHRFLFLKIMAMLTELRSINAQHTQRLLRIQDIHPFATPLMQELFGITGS
Description: Agonist activity at human PXR-gamma expressed in HEK293 cells assessed as transcriptional activity in presence of ursolic acid by Gal4-luciferase reporter assay

in vitro = details: human, hepatocytes
CYP3A4 = CYP3A4 (Homo sapiens, UniProt P08684); experiment: in vitro; details: probe testosterone
Description: Inhibition of CYP3A4 (unknown origin) assessed as oxidation of testosterone at 10 uM

physchem = details: PBS buffer, pH 7.4
Description: Solubility of the compound in pH 7.4 PBS buffer

[2] = target: T2, Nuclear receptor ROR-gamma (Homo sapiens, UniProt P51449)
T2 sequence (P51449 whole entry): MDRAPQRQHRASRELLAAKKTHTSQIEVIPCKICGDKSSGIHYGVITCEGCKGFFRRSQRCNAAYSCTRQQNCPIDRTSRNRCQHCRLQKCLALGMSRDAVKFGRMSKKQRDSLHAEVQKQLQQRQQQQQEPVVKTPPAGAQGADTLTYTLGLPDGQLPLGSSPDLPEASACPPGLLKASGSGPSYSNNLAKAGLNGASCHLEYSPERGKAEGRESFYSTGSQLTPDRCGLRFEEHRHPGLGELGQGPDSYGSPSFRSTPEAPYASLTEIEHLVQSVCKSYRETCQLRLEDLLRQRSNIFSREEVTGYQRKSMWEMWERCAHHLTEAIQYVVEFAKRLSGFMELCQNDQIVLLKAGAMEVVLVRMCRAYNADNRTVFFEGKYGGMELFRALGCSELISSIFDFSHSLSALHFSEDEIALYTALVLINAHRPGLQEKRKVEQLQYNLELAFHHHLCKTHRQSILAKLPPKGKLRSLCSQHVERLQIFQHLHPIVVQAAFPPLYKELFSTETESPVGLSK
Description: Agonist activity at human His-tagged RORgamma-LBD expressed in Sf9 cells assessed as inhibition of N-terminal biotinylated co-activator SRC1 recruitment in presence of ursolic acid measured after 60 mins by FRET assay

[3] = target: T2, Nuclear receptor ROR-gamma; remark: listed apart in the source
Description: Agonist activity at human ROR-gamma LBD expressed in HEK293 cells assessed as transcriptional activity in presence of ursolic acid by Gal4-luciferase reporter assay

CYP2D6 = CYP2D6 (Homo sapiens, UniProt P10635); experiment: in vitro; details: probe testosterone
Sequence of CYP2D6 (P10635 whole entry): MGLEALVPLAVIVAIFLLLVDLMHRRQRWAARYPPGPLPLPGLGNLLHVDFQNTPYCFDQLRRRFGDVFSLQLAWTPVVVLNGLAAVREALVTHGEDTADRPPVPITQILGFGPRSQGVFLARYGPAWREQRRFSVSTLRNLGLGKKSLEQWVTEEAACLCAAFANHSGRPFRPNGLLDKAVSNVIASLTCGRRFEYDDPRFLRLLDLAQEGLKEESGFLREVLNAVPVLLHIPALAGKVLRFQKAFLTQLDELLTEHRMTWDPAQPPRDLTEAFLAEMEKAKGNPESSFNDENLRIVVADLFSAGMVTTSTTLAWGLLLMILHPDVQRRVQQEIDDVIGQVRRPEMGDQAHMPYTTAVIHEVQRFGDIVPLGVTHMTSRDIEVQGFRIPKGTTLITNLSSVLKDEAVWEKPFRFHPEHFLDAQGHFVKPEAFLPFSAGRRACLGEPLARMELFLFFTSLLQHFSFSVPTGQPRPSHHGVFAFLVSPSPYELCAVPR
Description: Inhibition of CYP2D6 (unknown origin) assessed as oxidation of testosterone at 10 uM

Sequence of CYP3A4 (P08684 whole entry): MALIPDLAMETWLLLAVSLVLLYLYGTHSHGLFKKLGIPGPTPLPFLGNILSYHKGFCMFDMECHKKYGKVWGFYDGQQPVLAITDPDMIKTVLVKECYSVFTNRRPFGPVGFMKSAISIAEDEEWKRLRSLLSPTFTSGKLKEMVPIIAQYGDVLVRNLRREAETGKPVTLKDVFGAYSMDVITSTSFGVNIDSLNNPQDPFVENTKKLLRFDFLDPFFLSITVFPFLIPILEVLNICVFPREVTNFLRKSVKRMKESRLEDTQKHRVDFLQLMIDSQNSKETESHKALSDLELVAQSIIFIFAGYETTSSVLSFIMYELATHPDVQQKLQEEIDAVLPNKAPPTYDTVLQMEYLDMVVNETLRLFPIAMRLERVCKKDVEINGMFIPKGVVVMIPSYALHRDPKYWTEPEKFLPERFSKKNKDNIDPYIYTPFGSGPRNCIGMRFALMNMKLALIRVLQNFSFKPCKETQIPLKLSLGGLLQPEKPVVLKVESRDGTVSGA

Row | SMILES | EC50 [1] | hepatocyte CLint (in vitro) | inhibition at 10 µM (CYP3A4) | solubility (physchem) | EC50 [2] | EC50 [3] | inhibition at 10 µM (CYP2D6)
1 | O=C(O)CC[C@H]1CN(S(=O)(=O)c2cccc(C(F)(F)F)c2)c2cc(-c3cc(F)cc(F)c3)ccc2O1 | > 10000 nM | 31 µL/min/1e6 cells | 25% | 277 µM (≈ 146 µg/mL) | – | – | –
2 | O=C(O)CC[C@H]1CN(S(=O)(=O)c2cccc(C(F)(F)F)c2)c2cc(/C=C/c3ccc(Cl)cc3F)ccc2O1 | > 10000 nM | – | – | – | 342 nM | > 10000 nM | –
3 | O=C(O)CC[C@H]1CN(S(=O)(=O)c2cccc(C(F)(F)F)c2)c2cc(-c3cc(F)cc(OC(F)F)c3)ccc2O1 | > 10000 nM | – | 5% | – | – | – | -6%
4 | O=C(O)C1(C[C@H]2CN(S(=O)(=O)c3cccc(C(F)(F)F)c3)c3cc(-c4cc(F)ccc4F)ccc3O2)COC1 | 18000 nM | – | – | 201 µM (≈ 114 µg/mL) | 10 nM | 179 nM | –
5 | C/C(=C\c1ccc2c(c1)N(S(=O)(=O)c1cccc(C(F)(F)F)c1)C[C@H](CCC(=O)O)O2)c1c(Cl)cccc1Cl | > 10000 nM | 23 µL/min/1e6 cells | 6% | 309 µM (≈ 186 µg/mL) | 435 nM | 487 nM | -1%
6 | CC(C)(C[C@H]1CN(S(=O)(=O)c2cccc(C(F)(F)F)c2)c2cc(-c3cccc(Cl)c3F)ccc2O1)C(=O)O | > 10000 nM | – | 28.5% | – | – | – | 6%
7 | C/C(=C\c1ccc2c(c1)N(S(=O)(=O)c1cccc(C(F)(F)F)c1)C[C@H](CCC(=O)O)O2)c1ccccc1C(F)(F)F | > 10000 nM | 23 µL/min/1e6 cells | 18% | 260 µM (≈ 156 µg/mL) | 108 nM | 290 nM | 2%
8 | C/C(=C\c1ccc2c(c1)N(S(=O)(=O)c1cccc(OC(F)F)c1)C[C@H](CCC(=O)O)O2)c1c(F)cccc1Cl | 9100 nM | 9.4 µL/min/1e6 cells | 9% | 248 µM (≈ 144 µg/mL) | 195 nM | 280 nM | 2%
9 | O=C(O)CC[C@H]1CN(S(=O)(=O)c2cccc(C(F)(F)F)c2)c2cc(-c3cccc(F)c3)ccc2O1 | > 10000 nM | – | 19% | – | – | – | 0%
10 | O=C(O)CC[C@H]1CN(S(=O)(=O)c2cccc(C(F)(F)F)c2)c2cc(-c3cccc(Cl)c3)ccc2O1 | > 10000 nM | – | 24% | – | – | – | 0%
11 | O=S(=O)(c1cccc(C(F)(F)F)c1)N1C[C@H](CC2(CO)COC2)Oc2ccc(Br)cc21 | > 10000 nM | – | – | – | – | – | –
12 | O=C(O)[C@@H](O)CC[C@H]1CN(S(=O)(=O)c2cccc(C(F)(F)F)c2)c2cc(-c3cc(F)ccc3F)ccc2O1 | > 10000 nM | 18 µL/min/1e6 cells | – | – | 13 nM | 501 nM | –
13 | C[C@@H](C[C@H]1CN(S(=O)(=O)c2cccc(C(F)(F)F)c2)c2cc(-c3cc(F)ccc3F)ccc2O1)C(=O)O | > 10000 nM | – | 17% | – | – | – | 13%
14 | O=C(O)CC[C@H]1CN(S(=O)(=O)c2cccc(C(F)(F)F)c2)c2cc(-c3cccc(OC(F)F)c3)ccc2O1 | > 10000 nM | 36 µL/min/1e6 cells | 19% | 287 µM (≈ 160 µg/mL) | 10 nM | 278 nM | 7%
15 | COc1cccc(-c2ccc3c(c2)N(S(=O)(=O)c2cccc(C(F)(F)F)c2)C[C@H](CCC(=O)O)O3)c1 | > 10000 nM | 44 µL/min/1e6 cells | 19% | 280 µM (≈ 146 µg/mL) | – | – | 2%
16 | O=C(O)CC[C@H]1CN(S(=O)(=O)c2cccc(C(F)(F)F)c2)c2cc(-c3ccc(Cl)cc3)ccc2O1 | – | 38 µL/min/1e6 cells | 14% | 15 µM (≈ 7.89 µg/mL) | 27 nM | – | -2%
17 | COc1cc(F)cc(-c2ccc3c(c2)N(S(=O)(=O)c2cccc(C(F)(F)F)c2)C[C@H](CCC(=O)O)O3)c1 | > 10000 nM | – | – | – | – | – | –
18 | COc1ccccc1/C(C)=C/c1ccc2c(c1)N(S(=O)(=O)c1cccc(C(F)(F)F)c1)C[C@H](CCC(=O)O)O2 | > 10000 nM | 33 µL/min/1e6 cells | 19% | 183 µM (≈ 103 µg/mL) | – | – | 3%
19 | COc1cc(S(=O)(=O)N2C[C@H](CCC(=O)O)Oc3ccc(/C=C(\C)c4c(F)cccc4Cl)cc32)ccc1F | > 10000 nM | – | -0.5% | – | – | – | 10%
20 | C/C(=C\c1ccc2c(c1)N(S(=O)(=O)c1cccc(C(F)(F)F)c1)C[C@H](CCC(=O)O)O2)c1ccccc1C | – | – | 0% | – | – | – | -6%
21 | O=C(O)CC[C@H]1CN(S(=O)(=O)c2cccc(C(F)(F)F)c2)c2cc(/C=C/c3c(F)cccc3Cl)ccc2O1 | > 10000 nM | 26 µL/min/1e6 cells | 33% | 273 µM (≈ 156 µg/mL) | 33 nM | 617 nM | -5.6%
22 | CC(C)c1ccc(-c2ccc3c(c2)N(S(=O)(=O)c2cccc(C(F)(F)F)c2)C[C@H](CCC(=O)O)O3)cc1 | > 10000 nM | 31 µL/min/1e6 cells | -4% | – | 42 nM | > 10000 nM | 2%
23 | C[C@H](C[C@H]1CN(S(=O)(=O)c2cccc(C(F)(F)F)c2)c2cc(-c3cc(F)ccc3F)ccc2O1)C(=O)O | > 10000 nM | – | 18% | – | – | – | 11%
24 | O=C(O)CC[C@H]1CN(S(=O)(=O)c2cccc(C(F)(F)F)c2)c2cc(-c3cccc(OCCO)c3)ccc2O1 | > 10000 nM | – | – | – | > 10000 nM | > 10000 nM | –
25 | C/C(=C\c1ccc2c(c1)N(S(=O)(=O)c1ccc(F)c(C3CC3)c1)C[C@H](CCC(=O)O)O2)c1c(F)cccc1Cl | 6700 nM | 11 µL/min/1e6 cells | 4% | 250 µM (≈ 144 µg/mL) | 269 nM | 495 nM | 10%
26 | C/C(=C\c1ccc2c(c1)N(S(=O)(=O)c1ccc(F)c(C(F)(F)F)c1)C[C@H](CCC(=O)O)O2)c1c(F)cccc1Cl | 6000 nM | 24 µL/min/1e6 cells | – | 61 µM (≈ 36.7 µg/mL) | 85 nM | 411 nM | –
27 | O=C(O)[C@H](O)CC[C@H]1CN(S(=O)(=O)c2cccc(C(F)(F)F)c2)c2cc(-c3cc(F)ccc3F)ccc2O1 | > 10000 nM | 13 µL/min/1e6 cells | – | – | 120 nM | 166 nM | –
28 | C/C(=C\c1ccc2c(c1)N(S(=O)(=O)c1cccc(C(F)(F)F)c1)C[C@H](CCC(=O)O)O2)c1ccccc1 | > 10000 nM | 22 µL/min/1e6 cells | -3% | 267 µM (≈ 142 µg/mL) | – | – | 3%
29 | C/C(=C\c1ccc2c(c1)N(S(=O)(=O)c1cccc(C(F)(F)F)c1)C[C@H](CCC(=O)O)O2)c1ccccc1Cl | > 10000 nM | 22 µL/min/1e6 cells | 7% | 309 µM (≈ 175 µg/mL) | – | – | 13%
